Laboratory results: PubChem BioAssay (NCI)
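Interpolation was linear, between the two tested concentrations surrounding the appropriate level; five concentrations were tested over 48 hours in 96-well plates. Here, GI50 denotes the concentration required for 50% inhibition of growth. The concentration for full growth arrest is given as TGI.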

What was measured:
Experiment in all cases: NCI tumour cell line growth inhibition, 48 h
RXF-631 renal = tested on: RXF-631 renal
LXFL 529 NSCLC = tested on: LXFL 529 NSCLC
SN12K1 renal = tested on: SN12K1 renal
P388/ADR leukemia = tested on: P388/ADR leukemia

Structure (SMILES) | TGI (RXF-631 renal) | TGI (LXFL 529 NSCLC) | TGI (SN12K1 renal) | further results
CCC1CN2CCc3cc(OC)c(OC)cc3C2CC1CC1c2cc(OC)c(OC)cc2CCN1C(=O)C(N)Cc1ccccc1 (configuration not stated) | 8.11 µM | 11.6 µM | – | –
CC(=O)OC1C=C(C=O)C(O)(C=O)C2(C)CCCC(C)(C)C12 (configuration not stated) | – | – | 3.85 µM | –
CC(C)=CCc1c(O)cc(O)c2c1OC(c1ccc(O)cc1)C(O)C2=O (configuration not stated) | 97.9 µM | 86.9 µM | – | –
NCC(Cl)C(O)c1cnc(N)[nH]1 (configuration not stated) | – | – | 12.4 µM | TGI (P388/ADR leukemia): 10.1 µM
Cc1[nH]c(=O)[nH]c(=O)c1/C=C/C(=O)NC(CO)CC(C)C (configuration not stated) | – | – | > 375 µM | TGI (P388/ADR leukemia): > 149 µM
N=C1C(=N)c2ccccc2-c2ccccc21.[Cl-].[Ru+2].c1cnc2c(c1)ccc1cccnc12.c1cnc2c(c1)ccc1cccnc12 | – | 55.7 µM | – | GI50 (LXFL 529 NSCLC): 18.9 µM
COc1ccc(C2C(C(=O)O)=C(CO)Oc3cc4c(cc32)OCO4)cc1 (configuration not stated) | > 100 µM | – | – | –
